Legend:
[1] = test system: CXF280 Human Colon Carcinoma; assay: Antitumor testing against human colon cancer xenograft CXF280; assay type: in vivo, BALB/c nu/nu mice; design: key to Fecal observation: N: normal feces; L: loose passage
Description: CXF280 tumor (about 2×2 mm piece) was implanted subcutaneously into BALB/c nu/nu mice (21-22 g) on day 0. When tumor volume became 100 mm^3 on day around 14, the compounds of the invention were orally administered daily for 3 weeks. At one day after the last treatment, tumor volume was calculated.
The percent inhibition of tumor growth given in Table 3 above was calculated from the formula:
% Inhibition ={1-(T-V0)/(C-V0)}×100
V0 =volume of tumor before treatment was started, T=volume of the tumors from the treated group, C=volume of the tumor from the control group.

colon 26 carcinoma = assay: Antitumor and anticachexia activity against mouse colon 26 carcinoma; assay type: in vivo, Mice (CDF1); conditions: for Serum IAP: IAP = immunosuppressive acidic protein
Description: Antitumor activity of a representative compound (Example 13), of the present invention, was measured as follows. Mice (CDF1) were subcutaneously inoculated with colon 26 carcinoma (10^6 cells) on day 0. The compound was administered daily for 7 times from day 21 when the animals became cachectic. One day after the last treatment, tumor weight gain, carcass weight gain, adipose tissue weight, concentrations of glucose and the acute phase reactant IAP (immunosuppressive acidic protein) in the serum were measured.

human liver acylamidase = assay: Susceptibility to human liver acylamidase (crude liver extract, 5'-DFCR formed by HPLC); assay type: in vitro ADME; conditions: tetrahydrouridine 0.4 mM, 37° C., 60 min
Description: (§1) The N^4 -(substituted-oxycarbonyl)-5'-DFCRs of the invention were incubated with crude extracts of monkey and human liver in the presence of an inhibitor of cytidine deaminase, tetrahydrouridine (0.4 mM) at 37° C. for 60 min. Thereafter, the product 5'-DFCR was separated by HPLC and the enzyme susceptibility was calculated from the amount of the product.

[2] = Toxicity (LD50), oral administration daily for 21 days in mice; conditions: mouse, in vivo
Description: The toxicity (LD50) of the representative compounds (Example 13,14, and 17) of the present invention was examined by oral administration daily for 21 days in mice. The representative LD50 values obtained from the experiments were more than 500 mg/kg/day.

[3] = Pharmacokinetic profiles in monkeys (plasma 5'-DFUR after oral administration); assay type: in vivo; conditions: cynomolgous monkeys, metabolite 5'-DFUR in plasma
Description: The compounds of formula (I) were orally administered into groups of 2 to 5 cynomolgous monkeys (3-4 kg). At various times after the administration, plasma was taken for determination of blood concentrations of intact molecules and their active metabolite 5'-DFUR. Metabolites in the plasma were separated by HPLC and their concentrations were calculated.

monkey liver acylamidase = assay: Susceptibility to monkey liver acylamidase (crude liver extract, 5'-DFCR formed by HPLC); assay type: in vitro ADME; conditions: tetrahydrouridine 0.4 mM, 37° C., 60 min
Description: as §1

In the case of CCCCCCOC(=O)Nc1nc(=O)n([C@@H]2O[C@H](C)[C@@H](O)[C@H]2O)cc1F [Example 13, 5'-deoxy-5-fluoro-N^4-(hexyloxycarbonyl)cytidine], the Fecal observation ([1]; Exp. 1, 1.5 mmol/kg/day x 21, oral) is reported as “N”, the inhibition in vivo at 0.13 mmol/kg/day ([1]; Mus musculus, po, Exp. 1, 0.13 mmol/kg/day x 21, oral, read-out: % Growth inhibition) is reported as 59% and the inhibition in vivo at 0.3 mmol/kg/day ([1]; Mus musculus, po, Exp. 1, 0.3 mmol/kg/day x 21, oral, read-out: % Growth inhibition) is reported as 66%. The inhibition in vivo at 0.67 mmol/kg/day ([1]; Mus musculus, po, Exp. 1, 0.67 mmol/kg/day x 21, oral, read-out: % Growth inhibition) was 79%, the inhibition in vivo at 1 mmol/kg/day ([1]; Mus musculus, po, Exp. 1, 1.0 mmol/kg/day x 21, oral, read-out: % Growth inhibition) was 91% and the inhibition in vivo at 1.5 mmol/kg/day ([1]; Mus musculus, po, Exp. 1, 1.5 mmol/kg/day x 21, oral, read-out: % Growth inhibition) was 94%. The Adipose tissue wt. (colon 26 carcinoma; 0.125 mmol/kg x 7, from day 21) was 22 mg, the Carcass wt. change (colon 26 carcinoma; 0.125 mmol/kg x 7, from day 21) was 1.6 g and the Serum glucose (colon 26 carcinoma; 0.125 mmol/kg x 7, from day 21) was 118 mg/dL. For the same compound, the Tumor wt. change (colon 26 carcinoma; 0.125 mmol/kg x 7, from day 21) was 1.24 g, the “Serum IAP” value (colon 26 carcinoma; 0.125 mmol/kg x 7, from day 21) was 1195 µg/mL and the Adipose tissue wt. (colon 26 carcinoma; 0.25 mmol/kg x 7, from day 21) was 42 mg. It also gave a Carcass wt. change (colon 26 carcinoma; 0.25 mmol/kg x 7, from day 21) of 3.4 g, a Serum glucose (colon 26 carcinoma; 0.25 mmol/kg x 7, from day 21) of 120 mg/dL and a Tumor wt. change (colon 26 carcinoma; 0.25 mmol/kg x 7, from day 21) of 0.91 g. For the same compound, the “Serum IAP” value (colon 26 carcinoma; 0.25 mmol/kg x 7, from day 21) was 1020 µg/mL, the Adipose tissue wt. (colon 26 carcinoma; 0.5 mmol/kg x 7, from day 21) was 63 mg and the Carcass wt. change (colon 26 carcinoma; 0.5 mmol/kg x 7, from day 21) was 4.2 g. The Serum glucose (colon 26 carcinoma; 0.5 mmol/kg x 7, from day 21) was 147 mg/dL, the Tumor wt. change (colon 26 carcinoma; 0.5 mmol/kg x 7, from day 21) was 0.79 g and the “Serum IAP” value (colon 26 carcinoma; 0.5 mmol/kg x 7, from day 21) was 805 µg/mL. The Adipose tissue wt. (colon 26 carcinoma; 1 mmol/kg x 7, from day 21) was 85 mg, the Carcass wt. change (colon 26 carcinoma; 1 mmol/kg x 7, from day 21) was 5.6 g and the Serum glucose (colon 26 carcinoma; 1 mmol/kg x 7, from day 21) was 127 mg/dL. For the same compound, the Tumor wt. change (colon 26 carcinoma; 1 mmol/kg x 7, from day 21) was 0.006 g, the “Serum IAP” value (colon 26 carcinoma; 1 mmol/kg x 7, from day 21) was 795 µg/mL and the “cachexia (in words)” value (colon 26 carcinoma; daily for 7 times from day 21) was “improved cachexia”. For the same compound, the “tumor growth (in words)” value (colon 26 carcinoma; daily for 7 times from day 21) was “suppressed tumor growth”, the “Acylamidase activity, Human Liver” value (human liver acylamidase) was 220 nmol/mg protein/hr and the LD50 at 504 h [2] was greater than 500 mg/kg. For the same compound, the “Plasma 5'-DFUR AUC” value [3] was 1960 ng·h/mL and the “Acylamidase activity, Monkey Liver” value (monkey liver acylamidase) was 47 nmol/mg protein/hr.
